# Source: patent US5306721A (priority 1990, dated 1994)
# Where two headings read alike, the source gives them in different places.
# Columns and labels:
# [1] = tested on: SE-specific IgM and IgG plaque forming cells (PFC); experiment: Immunorestorative efficacy: plaque test in cyclophosphamide (CY) damaged animals; format: in vivo, mouse (CBA inbred); conditions: for IgM PFC/10^6, CY + compound / IgG PFC/10^6 spleen cells, CY + compound: CY 150 mg/kg, oral 2 mg/kg
# Protocol: The detection of immunorestorative effects after injury to the immune system was carried out also by the plaque test for detecting SE-specific IgM, and IgG PFC, and by the rosette test.
# The determination of the immunorestorative activity of compounds of Formula I was conducted by first damaging the immune system of the experimental animals (CBA inbred mice) by chemotherapy with cyclophosphamide, carrageenan, iloprost, or by radiation. The test was carried the plaque test for detecting SE-specific IgM and IgG PFC, and the rosette test.
# The examination of the immunorestorative effects of compounds of Example 1 was carried out by damaging the immune system of the experimental animals by cyclophosphamide (CY), and subsequent testing by sheep erythrocycle SE-specific plaque forming cells PFC.
# The immune system of the animals was damaged by the injection of 150 mg/kg of body weight on day -1 before the immunization for both the test and the control groups. Immunization was carried out by the intraperitoneal injection of 4×10^8 SE in 0.2 ml of phosphate buffered saline (PBS) solution.
# Each of the experimental animals of the test group received by oral administration 2 mg of the compound of Example 1 per kg of body weight on the days -2, -1, 0, +1 and +2. The SE-specific IgM and IgG PFC was detected by the plaque test.
# Influenza A/WSN [2] = experiment: Plaque reduction test, influenza; format: cell-based; conditions: Influenza A virus, primary chicken embryo cells, read-out: Plaque reduction in % of the virus control
# Vaccinia Lister [3] = experiment: microbe, parasite or virus in culture; format: cell-based; conditions: Orthopoxvirus vaccinia, in Gallus gallus, read-out: Plaque reduction in % of the virus control
# adenovirus type 4 = experiment: Antiviral activity against adenovirus type 4; format: cell-based
# [4] = tested on: SE-specific IgM and IgG plaque forming cells (PFC); experiment: Plaque test (HPT) for SE-specific IgM and IgG plaque forming cells, immunostimulatory action; format: in vivo, mouse (inbred CBA strain); conditions: 2.0 mg/kg daily over 5 days; control 100%; p<0.001
# Protocol: The testing of immunostimulatory effects was also conducted on the mouse (inbred CBA strain) by detection through the plaque test for detecting SE (sheep erythrocyte) -specific immunoglobulin M (IgM) and immunoglobulin G (IgG) PFC (plaque forming cells), and by the rosette test.
# 2.1 Plaque Test for the Detection of SE-Specific IgM and IgG Plaque Forming Cells (PFC)
# To check the immunostimulatory effects, the humoral immune response effect of compounds of Formula I was also investigated in mice of the inbred CBA strain and determined by means of the haemolysis plaque test (HPT). This technique permits the PFC, which produce IgM and IgG antibodies, to be determined quantitatively and separately. The immunization with sheep erythrocytes (SE) was carried out on day 0, the substance was administered orally in a daily dose of 1×10^-5 moles/kg of body weight; on days -1 to +3 relative to the determination of the IgM PFC, or on days +1 to +5 relative to the determination of the IgG PFC.
# It becomes clear that a daily treatment extending over 5 days with the compound of Example 1, produces a highly significant increase in the SE-specific IgM and IgG PFC in the CBA mouse.
# coxsackie A 9 virus = experiment: Antiviral activity against coxsackie A 9 virus; format: cell-based
# [5] = tested on: Herpes simplex type 1 Kupka; experiment: Grading replication test on RH cell line, herpes simplex type 1 Kupka; format: cell-based, herpes simplex virus; conditions: RH cells
# [6] = tested on: Vesicular Stomatitis Indiana; experiment: microbe, parasite or virus in culture; format: cell-based; conditions: in Gallus gallus, read-out: Plaque reduction in % of the virus control
# Vaccinia Lister [7] = experiment: microbe, parasite or virus in culture; format: cell-based; conditions: Orthopoxvirus vaccinia
# Vaccinia Lister [8] = experiment: microbe, parasite or virus in culture; format: cell-based, vaccinia virus
# Herpes simplex type 1 = experiment: microbe, parasite or virus in culture; format: cell-based, herpes simplex virus
# [9] = tested on: Vesicular Stomatitis Indiana; experiment: microbe, parasite or virus in culture; format: cell-based, vesicular stomatitis virus
# Influenza A/WSN [10] = experiment: Grading replication test on chicken embryo cells, influenza; format: cell-based; conditions: Influenza A virus
# [11] = read-out: Inhibition of virus yield
# [12] = read-out: Lowering the virus yield
# [13] = Orthopoxvirus vaccinia, in Gallus gallus, read-out: Inhibition of virus yield
# [14] = Orthopoxvirus vaccinia, in Gallus gallus, read-out: Lowering the virus yield
# [15] = Vesicular stomatitis virus, in Gallus gallus, read-out: Lowering the virus yield
structure (smiles),measurement,setting,value
"O=c1[nH]c2ccccc2c(=O)n1CCS [Example 1, 3-(2-mercapto-ethyl)-quinazoline-2,4(1H,3H)-dione]",number of IgG PFC in CY-suppressed animals,"[1]; 6th and 7th days, p<0.05 and p<0.01",significantly increases the number of IgG PFC
same,recovery of the immunological reactivity (IgM PFC),"[1]; CY-damaged animals, significant on the 5th day, p<0.05",measurable recovery of the immunological reactivity
same,"IgM PFC/10^6, CY + compound","[1]; day of testing +3, CY only control 37.5 ± 27.1",31.7 ± 26.6 PFC/10^6
same,"IgM PFC/10^6, CY + compound","[1]; day of testing +4, CY only control 49.7 ± 32.9",59.8 ± 26.6 PFC/10^6
same,"IgM PFC/10^6, CY + compound","[1]; day of testing +5, CY only control 56.8 ± 27.6, p<0.05",125.2 ± 32.7 PFC/10^6
same,"IgG PFC/10^6 spleen cells, CY + compound","[1]; day of testing +6, CY only control 26.7 ± 12.1, p<0.05",88.3 ± 24.8 PFC/10^6 spleen cells
same,"IgM PFC/10^6, CY + compound","[1]; day of testing +6, CY only control 74.7 ± 73.4",47.8 ± 32.7 PFC/10^6
same,"IgG PFC/10^6 spleen cells, CY + compound","[1]; day of testing +7, CY only control 46.7 ± 16.3, p<0.01",128.3 ± 28.6 PFC/10^6 spleen cells
same,"IgG PFC/10^6 spleen cells, CY + compound","[1]; day of testing +8, CY only control 63.3 ± 24.2",58.3 ± 43.6 PFC/10^6 spleen cells
same,inhibition at 31.25 µM,Influenza A/WSN [2]; 31.25 μmoles/l,85%
same,inhibition at 62.5 µM,Influenza A/WSN [2]; 62.5 μmoles/l,92%
same,inhibition at 125 µM,Influenza A/WSN [2]; 125 μmoles/l,98%
same,inhibition at 250 µM,Influenza A/WSN [2]; 250 μmoles/l,100%
same,inhibition at 31.25 µM,Vaccinia Lister [3],87%
same,inhibition at 62.5 µM,Vaccinia Lister [3],92%
same,inhibition at 125 µM,Vaccinia Lister [3],96%
same,inhibition at 250 µM,Vaccinia Lister [3],100%
same,antiviral activity,adenovirus type 4,did not have antiviral activity
same,number of IgG PFC relative to control,[4],497%
same,number of IgM PFC relative to control,[4],352%
same,antiviral activity,coxsackie A 9 virus,did not have antiviral activity
same,Inhibition of virus yield,"[5]; 62.5 μmoles/l, n.s. = not significant",n.s.
same,log reduction at 62.5 µM,"[5]; Human alphaherpesvirus 1, 62.5 μmoles/l, read-out: Lowering the virus yield",0.75
same,inhibition at 125 µM,"[5]; Human alphaherpesvirus 1, 125 μmoles/l, read-out: Inhibition of virus yield",> 100%
same,log reduction at 125 µM,"[5]; Human alphaherpesvirus 1, 125 μmoles/l, read-out: Lowering the virus yield",5.5
same,inhibition at 250 µM,"[5]; Human alphaherpesvirus 1, 250 μmoles/l, read-out: Inhibition of virus yield",> 100%
same,log reduction at 250 µM,"[5]; Human alphaherpesvirus 1, 250 μmoles/l, read-out: Lowering the virus yield",6
same,inhibition at 62.5 µM,[6],0%
same,inhibition at 125 µM,[6],15%
same,inhibition at 250 µM,[6],45%
same,inhibition at 31.25 µM,Vaccinia Lister [7]; [11],> 100%
same,inhibition at 62.5 µM,Vaccinia Lister [7]; [11],100%
same,inhibition at 125 µM,Vaccinia Lister [7]; [11],> 100%
same,inhibition at 250 µM,Vaccinia Lister [7]; [11],> 100%
same,log reduction at 31.25 µM,Vaccinia Lister [7]; [12],3.5
same,log reduction at 62.5 µM,Vaccinia Lister [7]; [12],4
same,log reduction at 125 µM,Vaccinia Lister [7]; [12],> 4
same,log reduction at 250 µM,Vaccinia Lister [7]; [12],> 4
same,inhibition at 31.25 µM,Vaccinia Lister [8]; [13],99%
same,inhibition at 62.5 µM,Vaccinia Lister [8]; [13],99.7%
same,inhibition at 125 µM,Vaccinia Lister [8]; [13],100%
same,inhibition at 250 µM,Vaccinia Lister [8]; [13],> 100%
same,log reduction at 31.25 µM,Vaccinia Lister [8]; [14],1
same,log reduction at 62.5 µM,Vaccinia Lister [8]; [14],2.5
same,log reduction at 125 µM,Vaccinia Lister [8]; [14],4
same,log reduction at 250 µM,Vaccinia Lister [8]; [14],5.67
same,therapeutic index,"Vaccinia Lister [8]; ratio of maximum tolerated dose to minimum effective dose, vaccinia virus",8
same,Inhibition of virus yield,Herpes simplex type 1,n.s.
same,log reduction at 125 µM,"Herpes simplex type 1; Human alphaherpesvirus 1, in Gallus gallus, read-out: Lowering the virus yield",0.33
same,inhibition at 250 µM,"Herpes simplex type 1; Human alphaherpesvirus 1, 250 μmoles/l, chicken embryo cells, read-out: Inhibition of virus yield",99%
same,log reduction at 250 µM,"Herpes simplex type 1; Human alphaherpesvirus 1, 250 μmoles/l, chicken embryo cells, read-out: Lowering the virus yield",1
same,Inhibition of virus yield,"[9]; 125 μmoles/l, chicken embryo cells, n.s. = not significant",n.s.
same,inhibition at 250 µM,"[9]; Vesicular stomatitis virus, in Gallus gallus, read-out: Inhibition of virus yield",99.9%
same,log reduction at 125 µM,[9]; [15],0.5
same,log reduction at 250 µM,[9]; [15],3
same,inhibition at 31.25 µM,"Influenza A/WSN [10]; 31.25 μmoles/l, read-out: Inhibition of virus yield",99.5%
same,log reduction at 31.25 µM,"Influenza A/WSN [10]; 31.25 μmoles/l, read-out: Lowering the virus yield",2.5
same,inhibition at 62.5 µM,"Influenza A/WSN [10]; 62.5 μmoles/l, read-out: Inhibition of virus yield",> 100%
same,log reduction at 62.5 µM,"Influenza A/WSN [10]; 62.5 μmoles/l, read-out: Lowering the virus yield",4.25
same,inhibition at 125 µM,"Influenza A/WSN [10]; 125 μmoles/l, read-out: Inhibition of virus yield",> 100%
same,log reduction at 125 µM,"Influenza A/WSN [10]; 125 μmoles/l, read-out: Lowering the virus yield",4.67
same,inhibition at 250 µM,"Influenza A/WSN [10]; 250 μmoles/l, read-out: Inhibition of virus yield",> 100%
same,log reduction at 250 µM,"Influenza A/WSN [10]; 250 μmoles/l, read-out: Lowering the virus yield",6.23
